Experiments:
interferon (α) = assay: Cytokine Induction in Human Cells: interferon (α) secreted by PBMCs, ELISA; type: cell-based; details: PBMC, incubated 18 to 24 hours, lowest concentration found to induce interferon
Text: (§1) An in vitro human blood cell system is used to assess cytokine induction. Activity is based on the measurement of interferon and tumor necrosis factor (α) (IFN and TNF, respectively) secreted into culture media as described by Testerman et. al. In “Cytokine Induction by the Immunomodulators Imiquimod and S-27609”, Journal of Leukocyte Biology, 58, 365-372 (September, 1995).
(§2) Whole blood from healthy human donors is collected by venipuncture into EDTA vacutainer tubes. Peripheral blood mononuclear cells (PBMCs) are separated from whole blood by density gradient centrifugation using Histopaque®-1077. The PBMCs are washed twice with Hank's Balanced Salts Solution and then are suspended at 3-4×10^6 cells/mL in RPMI complete. The PBMC suspension is added to 48 well flat bottom sterile tissue culture plates (Costar, Cambridge, Mass. or Becton Dickinson Labware, Lincoln Park, N.J.) containing an equal volume of RPMI complete media containing test compound.
(§3) The compounds are solubilized in dimethyl sulfoxide (DMSO). The DMSO concentration should not exceed a final concentration of 1% for addition to the culture wells
(§4) The solution of test compound is added at 60 μM to the first well containing RPMI complete and serial 3 fold dilutions are made in the wells. The PBMC suspension is then added to the wells in an equal volume, bringing the test compound concentrations to the desired range (0.12 to 30 μM). The final concentration of PBMC suspension is 1.5-2×10^6 cells/mL. The plates are covered with sterile plastic lids, mixed gently and then incubated for 18 to 24 hours at 37° C. in a 5% carbon dioxide atmosphere.
(§5) Following incubation the plates are centrifuged for 5-10 minutes at 1000 rpm (˜200×g) at 4° C. The cell-free culture supernatant is removed with a sterile polypropylene pipet and transferred to sterile polypropylene tubes. Samples are maintained at −30 to −70° C. until analysis. The samples are analyzed for interferon (α) and for tumor necrosis factor (α) by ELISA.
Interferon (α) concentration is determined by ELISA using a Human Multi-Species kit from PBL Biomedical Laboratories, New Brunswick, N.J. Results are expressed in pg/mL.
(§6) The table below lists the lowest concentration found to induce interferon and the lowest concentration found to induce tumor necrosis factor for each compound.

[1] = system: tumor necrosis factor (α); assay: Cytokine Induction in Human Cells: tumor necrosis factor (α) secreted by PBMCs, ELISA; type: cell-based; set-up: key to Lowest Effective Concentration (μM) Tumor Necrosis Factor: A “*” indicates that no induction was seen at any of the tested concentrations; generally the highest tested concentration was 10 or 30 μM; details: incubated 18 to 24 hours, lowest concentration found to induce tumor necrosis factor; for minimal effective concentration: PBMC
Text: as §1, §2, §3, §4, §5
Tumor necrosis factor (α) (TNF)concentration is determined using ELISA kits available from Genzyme, Cambridge, Mass.; R&D Systems, Minneapolis, Minn.; or Pharmingen, San Diego, Calif. Results are expressed in pg/mL.
as §6

Row | SMILES | melting point | minimal effective concentration (interferon (α)) | minimal effective concentration [1] | Lowest Effective Concentration (μM) Tumor Necrosis Factor [1]
1 | Nc1nc2ccccc2c2c1ncn2CCOCC#Cc1nccs1 [Example 2, 1-(2-{[3-(1,3-Thiazol-2-yl)-2-propynyl]oxy}ethyl)-1H-imidazo[4,5-c]quinolin-4-amine] | 157 to 159 °C | 0.37 µM | 10 µM | –
2 | Nc1nc2ccccc2c2c1ncn2CCOCCCc1ccncc1 [Example 5, 1-[2-(3-Pyridin-4-ylpropoxy)ethyl]-1H-imidazo[4,5-c]quinolin-4-amine] | 160 to 162 °C | 0.04 µM | 0.37 µM | –
3 | Nc1nc2ccccc2c2c1ncn2CCOCCCc1nccs1 [Example 7, 1-{2-[3-(1,3-Thiazol-2-yl)propoxy]ethyl}-1H-imidazo[4,5-c]quinolin-4-amine] | 134 to 135 °C | 0.37 µM | – | *
4 | Cc1noc(C)c1COCCn1cnc2c(N)nc3ccccc3c21 [Example 16, 1-{2-[(3,5-Dimethylisoxazol-4-yl)methoxy]ethyl}-1H-imidazo[4,5-c]quinolin-4-amine] | 213 to 215 °C | 3.33 µM | 10 µM | –
5 | Nc1nc2ccccc2c2c1ncn2CCOCC#Cc1cccs1 [Example 30, 1-{2-[(3-thien-2-ylprop-2-ynyl)oxy]ethyl}-1H-imidazo[4,5-c]quinolin-4-amine] | 148 to 150 °C | 0.37 µM | 3.33 µM | –
6 | Nc1nc2ccccc2c2c1ncn2CCOCCCc1cccs1 [Example 32, 1-[2-(3-thien-2-ylpropoxy)ethyl]-1H-imidazo[4,5-c]quinolin-4-amine] | 130.1 to 131.6 °C | 0.01 µM | 1.11 µM | –
7 | Cc1nc2c(N)nc3ccccc3c2n1CCOCCCc1cccnc1 [Example 34, 2-Methyl-1-[2-(3-pyridin-3-ylpropoxy)ethyl]-1H-imidazo[4,5-c]quinoline-4-amine] | 145 to 146 °C | 0.01 µM | 0.04 µM | –

Now from value to compound, other results behind:

Row | melting point | SMILES | minimal effective concentration (interferon (α)) | minimal effective concentration [1] | Lowest Effective Concentration (μM) Tumor Necrosis Factor [1]
8 | 126 to 127 °C | Nc1nc2ccccc2c2c1ncn2CCOCCCc1ncccn1 [Example 4, 1-[2-(3-Pyrimidin-2-ylpropoxy)ethyl]-1H-imidazo[4,5-c]quinolin-4-amine] | 3.33 µM | – | *
9 | 138 to 140 °C | Nc1nc2ccccc2c2c1ncn2CCOCCCc1ccccn1 [Example 6, 1-[2-(3-Pyridin-2-ylpropoxy)ethyl]-1H-imidazo[4,5-c]quinolin-4-amine] | 0.12 µM | 1.11 µM | –
10 | 182 to 184 °C | Nc1nc2ccccc2c2c1ncn2CCOCc1cn(CSc2ccccc2)nn1 [Example 11, 1-[2-({1-[(Phenylsulfanyl)methyl]-1H-1,2,3-triazol-4-yl}methoxy)ethyl]-1H-imidazo[4,5-c]quinoline-4-amine] | 1.11 µM | 0.04 µM | –
11 | 196 to 198 °C | Nc1nc2ccccc2c2c1ncn2CCOCc1ccccn1 [Example 14, 1-[2-(Pyridin-2-ylmethoxy)ethyl]-1H-imidazo[4,5-c]quinolin-4-amine] | 0.12 µM | 0.37 µM | –
12 | 159 to 161 °C | Nc1nc2ccccc2c2c1ncn2CCOCc1ccncc1 [Example 15, 1-[2-(Pyridin-4-ylmethoxy)ethyl]-1H-imidazo[4,5-c]quinolin-4-amine] | 1.11 µM | 3.33 µM | –
13 | 243 to 245 °C | Cn1c(COCCn2cnc3c(N)nc4ccccc4c32)cc2ccccc21 [Example 31, 1-{2-[(1-methyl-1H-indol-2-yl)methoxy]ethyl}-1H-imidazo[4,5-c]quinolin-4-amine] | 3.33 µM | 3.33 µM | –
